From US20250017213A1, “COMPOSITION FOR MODULATING MICROBIAL GROWTH” (DSM AUSTRIA GMBH, priority 2021, published 2025)

Tested on: Lactobacillus reuteri F 275 (DSMZ 20016)
Test: microbe, parasite or virus in culture
Details: Limosilactobacillus reuteri

Compound: O=CO [formic, formic acid]
- inhibition at […] (DSMZ20016, NCI-H125, 4 h): 23.4%
- inhibition at […] (DSMZ20016, NCI-H125, 5 h): 38.2%
- inhibition at […] (DSMZ20016, NCI-H125, 6 h): 39.8%
- inhibition at […] (DSMZ20016, NCI-H125, 7 h): 39.7%
- inhibition at […] (DSMZ20016, NCI-H125, 10 h): 39.5%
